In patent US12624019B2, “Indazole derivative, and preparation method therefor and use thereof” (Leadingtac Pharmaceutical (Shaoxing) Co., Ltd., priority 2020, dated 2026):

What was measured:
[1] = biological target: T1, IKZF3 (Homo sapiens, UniProt Q96SW2+Q9UKT9); assay: Degradation of IKZF3 in L363 cells by Western blot; assay type: cell-based; conditions: compound 1000 nM, 16 hours
T1 construct: endogenous in cells; host or cells: L363 cells
Experimental: (§1) The 24-well cell culture plate was inoculated with 0.95 mL L363 cells (Nanjing Co-bioer) per well with a cell density of 6×10^5 cells/well. The cell plate was placed in a 5% carbon dioxide incubator and cultured at 37° C. for 8 hours, then 50 μL of compound solution was added. The final concentration of the compound was 1000 nM. After continuing to culture for 16 hours, the cells were collected into a 1.5 mL centrifuge tube and centrifuged at 3000 rpm and 4° C. for 5 minutes. Cell precipitation was washed twice with 1×DPBS, resuspended cells were lysed with 100 μL lysate (cell lysate was Western and IP cell lysate (Beyotime), supplemented with 1 mM mixture of phenylmethylsulfonyl fluoride and protease inhibitor (Beyotime)), left on ice for 30 minutes, then centrifuged at 14000 g at 4° C. for 10 minutes, and the supernatant was taken to detect IKZF1 and IKZF3 protein level by Western blot.
(§2) The total protein concentration in the supernatant of cell lysis was determined by BCA protein quantitative kit (Tiangen). According to the concentration of total protein detected by BCA, the supernatant was adjusted to […] with PBS and 5×SDS-PAGE protein loading buffer (Beyotime), bathed in water at 100° C. for 10 minutes, then placed in ice bath for 5 minutes, centrifuged at 14000 g and 4° C. for 5 minutes, and then collected as WB loading sample. Prefabricated glue (KeyGEN) was used for protein electrophoresis with a loading amount of 10 μL (total protein 2 μg). After Tris-MOPS-SDS electrophoresis solution (Adamas), 120V constant pressure electrophoresis was performed. After electrophoresis, the protein on the adhesive strip was transferred to PVDF membrane with a constant current of […] for 50 minutes. After the membrane was transferred, the membrane was incubated in 5% bovine serum albumin solution for 2 hours at room temperature. After blocking, PVDF membranes were incubated with IKZF1 primary antibody (CST) and IKZF3 primary antibody (Abcam) overnight at 4°, the membranes were washed with TBST buffer (2.4 g Tris, 8.8 g NaCl, 1.5 mL Tween 20, pH adjusted to 7.4, constant volume to 1 L) for 30 minutes, incubated with secondary antibody (Abcam) for 2 hours at room temperature, finally incubated with Clarity Western ECL Substrate (BIO-RAD) for 5 minutes for luminescence development, chemiluminescence imaging system (Clinx, chemiScope 6200 Touch) was used for development and protein mapping photography. The protein map was analyzed by Clinx chemiluminescence analysis software for grayscale values. Using the formula: grayscale correction value=(target protein grayscale value/corresponding internal reference grayscale value)×10^3, the grayscale correction value of each sample was calculated. The degradation rate was calculated by comparing with the grayscale correction value of the control group.

[2] = biological target: T2, IRAK4 kinase protein in THP-1 cells (Homo sapiens, UniProt Q9NWZ3); assay: Degradation of IRAK4 in THP-1 cells by Western Blot; assay type: cell-based; conditions: 24 hours; for Dmax / DC50: IRAK4 degradation in THP-1 cells; for Dmax: read-out: WB Dmax; for WB D(%) (300 nM) / WB D(%) (1000 nM): degradation percentage of IRAK4 in THP-1 cells; for WB D(%) (300 nM): compound 300 nM; for WB D(%) (1000 nM): compound 1000 nM; for DC50: read-out: WB DC50
T2 construct: endogenous in cells; host or cells: THP-1 cells
T2 sequence (Q9NWZ3 1-460): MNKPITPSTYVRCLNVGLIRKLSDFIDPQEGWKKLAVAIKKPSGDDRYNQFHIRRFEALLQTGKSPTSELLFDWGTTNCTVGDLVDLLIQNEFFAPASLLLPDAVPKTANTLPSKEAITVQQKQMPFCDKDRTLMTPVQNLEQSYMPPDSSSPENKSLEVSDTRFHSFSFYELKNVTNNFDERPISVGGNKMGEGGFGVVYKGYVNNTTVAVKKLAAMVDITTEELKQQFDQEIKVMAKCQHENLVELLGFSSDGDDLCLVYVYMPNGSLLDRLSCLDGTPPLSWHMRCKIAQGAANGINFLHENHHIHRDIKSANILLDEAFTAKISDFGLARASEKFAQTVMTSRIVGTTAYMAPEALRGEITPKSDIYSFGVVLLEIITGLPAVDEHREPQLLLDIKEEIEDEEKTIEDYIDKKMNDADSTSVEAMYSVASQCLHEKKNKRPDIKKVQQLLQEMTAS
Experimental: Each well of the 24-well cell culture plate was inoculated with 0.95 mL THP-1 cells (stem cell bank of Chinese academy of sciences) with a cell density of 5×10^5 cells/well. The cell plate was placed in a 5% carbon dioxide incubator and cultured overnight at 37° C., then 50 μL compound in dimethyl sulfoxide was added. The final concentration of the compound was in the range of 1-3000 nM. After continuous cultivation for 24 hours, the cells were collected into a 1.5 mL centrifuge tube, centrifuged at 1000 rpm and 4° C. for 5 minutes. Cell precipitation was washed twice with 1×DPBS, resuspended cells were lysed with 200 μL lysate (cell lysate was Western and IP cell lysate (Beyotime), supplemented with 1 mM mixture of phenylmethylsulfonyl fluoride and protease inhibitor (Beyotime)), left on ice for 30 minutes, then centrifuged at 14000 g at 4° C. for 10 minutes, and the supernatant was taken to detect IRAK4 protein level by Western blot.
The total protein concentration in the supernatant of cell lysis was determined by BCA protein quantitative kit (Tiangen). According to the concentration of total protein detected by BCA, the supernatant was adjusted to […] with PBS and 5×SDS-PAGE protein loading buffer (Beyotime), bathed in water at 100° C. for 10 minutes, then placed in ice bath for 5 minutes, centrifuged at 14000 g and 4° C. for 5 minutes, and then collected as WB loading sample. Prefabricated glue (KeyGEN) was used for protein electrophoresis with a loading amount of 10 μL (total protein 2 μg). After Tris-MOPS-SDS electrophoresis solution (Adamas), 120V constant pressure electrophoresis was performed. After electrophoresis, the protein on the adhesive strip was transferred to PVDF membrane with a constant current of […] for 50 minutes. After the membrane was transferred, the membrane was added in 1×QuickBlock blocking buffer (Beyotime) and incubated for 30 minutes at room temperature. After blocking, PVDF membranes were incubated with IRAK4 primary antibody (Abcam) overnight at 4°, the membranes were washed with TBST buffer (2.4 g Tris, 8.8 g NaCl, 1.5 mL Tween 20, pH adjusted to 7.4, constant volume to 1 L) for 30 minutes, incubated with secondary antibody (Abcam) for 2 hours at room temperature, finally incubated with Clarity Western ECL Substrate (BIO-RAD) for 5 minutes for luminescence development, chemiluminescence imaging system (Clinx, chemiScope 6200 Touch) was used for development and protein mapping photography. The protein map was analyzed by Clinx chemiluminescence analysis software for grayscale values. Using the formula: grayscale correction value=(target protein grayscale value/corresponding internal reference grayscale value)×[…], the grayscale correction value of each sample was calculated. The degradation rate was calculated by comparing with the grayscale correction value of the control group. Furthermore, DC50 and Dmax values of the compound were obtained by the nonlinear curve fitting with the logarithmic concentration-inhibition rate by GraphPad Prism 7.

[3] = Pharmacokinetic study in mice; assay type: in vivo, SD mice
Experimental: The following experimental scheme was used to study the pharmacokinetic behavior of the compound of the present invention in mice and evaluate its pharmacokinetic characteristics.
Experimental scheme: 3 healthy SD mice, male, weighing […], were given 100 mg/kg compound by gavage with a volume of 10 mL/kg, prepared with […] (w/v). Before the test, they were fasted for 12 hours and freely drank water. Food was uniformly consumed 4 h after administration.
Three healthy SD mice, male, weighing […], were given 1 mg/kg compound intravenously with a volume of 5 mL/kg, prepared with 5% DMSO/15% solutol %80% PBS (w/v). Before the test, they were fasted for 12 hours and freely drank water. Food was uniformly consumed 4 h after administration.
0.1 mL of venous blood was taken through the submaxillary venous plexus of mice at 0.08 h, 0.25 h, 0.5 h, 1 h, 2 h, 4 h, 8 h, 24 h after gavage administration and 0.08 h, 0.25 h, 0.5 h, 1 h, 2 h, 4 h, 8 h, 24 h after intravenous administration, placed in a heparin test tube, centrifuged at 11000 rpm for 5 min, and plasma was separated, the concentration of compounds in plasma was determined by liquid chromatography-tandem mass spectrometry.

[4] = biological target: T3, IKZF1 (Homo sapiens, UniProt Q13422+Q96SW2); assay: Degradation of IKZF1 in L363 cells by Western blot; assay type: cell-based; conditions: compound 1000 nM, 16 hours
T3 construct: endogenous in cells; host or cells: L363 cells
Experimental: as §1, §2

[5] = biological target: T4, IRAK4 kinase (Homo sapiens, UniProt Q9NWZ3); assay: IRAK4 kinase activity test (KinEASE-STK HTRF kit); assay type: biochemical; conditions: IRAK4 kinase inhibition, 7 μM ATP, 37° C. 120 min
T4 sequence (Q9NWZ3 1-460): T2 sequence (Q9NWZ3 1-460)
Experimental: KinEASE-STK Si serine/threonine kinase kit (Cisbio) was used to detect the inhibitory effect of the compound on IRAK4 kinase activity. The specific method was: the compound was dissolved in dimethyl sulfoxide, and then it was diluted with the buffer solution of the kit by equal gradient to make the final concentration range of the tested compound in the reaction system 10000 nM-0.038 nM, then 2.5 nM kinase, 1 μM biotinylated polypeptide substrate and 7 μM adenosine triphosphate (ATP) were added in sequence and incubated at 37° C. for 120 min. Subsequently, anti-phosphorylated serine/threonine antibody coupled with europium element compound and modified XL665 streptavidin were added to the reaction system to terminate the reaction. After incubating at room temperature for 1 h, the fluorescence intensity of each well at the emission wavelength of 620 nm and 665 nm and the excitation wavelength of 337 nm was determined in HTRF mode on the microplate reader EnVision (PerkinElmer), the ratio value was calculated using the formula Ratio=(665 nm/620 nm)×10^4. By comparing with the fluorescence intensity ratio of the control group, the inhibition rate of the compound at each concentration was calculated, and then the IC50 value of the compound was obtained by fitting the nonlinear curve with the logarithmic concentration-inhibition rate by GraphPad Prism 7.

[6] = male, SD, mouse, po, gavage administration 100 mg/kg, plasma

T3 sequence (Q13422 whole entry): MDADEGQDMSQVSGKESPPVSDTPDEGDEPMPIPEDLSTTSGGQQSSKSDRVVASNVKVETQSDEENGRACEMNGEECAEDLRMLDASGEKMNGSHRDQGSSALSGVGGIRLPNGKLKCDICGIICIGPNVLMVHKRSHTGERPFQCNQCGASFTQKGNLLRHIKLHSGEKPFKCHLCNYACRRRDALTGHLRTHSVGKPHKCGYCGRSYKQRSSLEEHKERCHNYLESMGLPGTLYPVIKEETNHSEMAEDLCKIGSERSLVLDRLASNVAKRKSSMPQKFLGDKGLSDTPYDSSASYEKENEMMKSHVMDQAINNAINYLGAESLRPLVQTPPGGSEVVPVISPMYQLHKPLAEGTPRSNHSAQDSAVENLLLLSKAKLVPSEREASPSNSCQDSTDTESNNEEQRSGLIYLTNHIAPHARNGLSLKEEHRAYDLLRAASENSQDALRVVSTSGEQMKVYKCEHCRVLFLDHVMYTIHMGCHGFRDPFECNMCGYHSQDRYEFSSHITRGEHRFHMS
T3 sequence (Q96SW2 whole entry): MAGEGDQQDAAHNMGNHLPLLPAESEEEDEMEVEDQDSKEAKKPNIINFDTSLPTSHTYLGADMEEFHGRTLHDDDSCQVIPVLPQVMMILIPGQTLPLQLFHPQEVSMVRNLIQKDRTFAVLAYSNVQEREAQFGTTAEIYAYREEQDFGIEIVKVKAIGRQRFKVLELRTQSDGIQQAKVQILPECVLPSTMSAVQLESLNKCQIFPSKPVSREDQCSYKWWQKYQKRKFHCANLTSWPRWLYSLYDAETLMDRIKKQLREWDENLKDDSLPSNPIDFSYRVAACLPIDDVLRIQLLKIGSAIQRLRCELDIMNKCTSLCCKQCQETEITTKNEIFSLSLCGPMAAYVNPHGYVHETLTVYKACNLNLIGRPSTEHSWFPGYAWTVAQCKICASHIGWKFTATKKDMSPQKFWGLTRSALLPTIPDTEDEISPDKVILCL
T3 sequence (Q16531 whole entry partner): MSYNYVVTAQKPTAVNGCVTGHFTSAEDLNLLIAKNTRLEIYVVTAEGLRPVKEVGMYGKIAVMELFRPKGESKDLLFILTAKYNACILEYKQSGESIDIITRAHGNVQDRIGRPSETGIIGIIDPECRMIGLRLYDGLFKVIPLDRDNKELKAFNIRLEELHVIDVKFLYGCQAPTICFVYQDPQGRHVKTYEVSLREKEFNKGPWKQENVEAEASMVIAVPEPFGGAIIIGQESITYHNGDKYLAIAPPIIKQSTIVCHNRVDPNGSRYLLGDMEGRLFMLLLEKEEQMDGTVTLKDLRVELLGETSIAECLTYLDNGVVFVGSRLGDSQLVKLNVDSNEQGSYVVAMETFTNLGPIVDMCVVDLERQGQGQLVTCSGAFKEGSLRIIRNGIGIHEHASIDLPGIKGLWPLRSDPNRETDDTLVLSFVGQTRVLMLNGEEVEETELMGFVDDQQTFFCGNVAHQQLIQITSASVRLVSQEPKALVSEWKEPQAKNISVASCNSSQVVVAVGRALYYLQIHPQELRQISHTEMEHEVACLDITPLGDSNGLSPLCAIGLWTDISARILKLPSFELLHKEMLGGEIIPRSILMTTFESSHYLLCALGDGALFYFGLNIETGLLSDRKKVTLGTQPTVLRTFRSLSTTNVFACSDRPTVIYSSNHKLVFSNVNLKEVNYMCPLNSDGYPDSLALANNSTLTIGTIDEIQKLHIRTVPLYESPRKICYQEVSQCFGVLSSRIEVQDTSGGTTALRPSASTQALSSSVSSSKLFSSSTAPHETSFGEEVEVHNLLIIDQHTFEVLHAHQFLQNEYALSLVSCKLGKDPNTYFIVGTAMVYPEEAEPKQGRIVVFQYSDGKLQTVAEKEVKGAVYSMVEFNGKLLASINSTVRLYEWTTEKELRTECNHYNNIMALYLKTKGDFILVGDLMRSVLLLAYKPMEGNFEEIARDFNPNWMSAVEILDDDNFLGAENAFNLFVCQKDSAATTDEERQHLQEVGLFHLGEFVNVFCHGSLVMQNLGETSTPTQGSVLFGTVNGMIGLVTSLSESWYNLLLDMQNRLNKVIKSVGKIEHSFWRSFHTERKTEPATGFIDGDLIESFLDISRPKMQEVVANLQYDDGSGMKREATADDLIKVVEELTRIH
T1 sequence (Q9UKT9 whole entry): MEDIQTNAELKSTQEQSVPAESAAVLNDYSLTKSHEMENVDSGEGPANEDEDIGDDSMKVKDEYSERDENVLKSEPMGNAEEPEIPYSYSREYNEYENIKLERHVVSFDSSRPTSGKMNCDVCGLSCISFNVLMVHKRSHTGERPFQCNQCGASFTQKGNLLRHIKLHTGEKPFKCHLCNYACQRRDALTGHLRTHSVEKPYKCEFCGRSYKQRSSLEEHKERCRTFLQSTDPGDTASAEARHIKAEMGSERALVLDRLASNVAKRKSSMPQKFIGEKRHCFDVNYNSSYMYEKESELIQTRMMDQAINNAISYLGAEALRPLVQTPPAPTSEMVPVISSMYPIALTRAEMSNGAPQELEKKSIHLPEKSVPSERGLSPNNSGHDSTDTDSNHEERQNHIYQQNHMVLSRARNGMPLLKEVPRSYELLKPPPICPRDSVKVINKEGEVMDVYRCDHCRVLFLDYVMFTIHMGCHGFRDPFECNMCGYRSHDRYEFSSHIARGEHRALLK
T1 sequence (Q96SW2 whole entry): as the sequence (Q96SW2 whole entry) above
T1 sequence (Q16531 whole entry partner): as the sequence (Q16531 whole entry partner) above

COc1cc2nn(C3CCN(CC4CCN(CCOc5ccc6c(c5)C(=O)N(C5CCC(=O)NC5=O)C6=O)CC4)CC3)cc2cc1NC(=O)c1cccc(C(F)(F)F)n1 (centres unmarked) [Control group 2, N-(2-(1-((1-(2-((2-(2,6-dioxopiperidin-3-yl)-1,3-dioxoisoindol-5-yl)oxy)ethyl)piperidin-4-yl)methyl)piperidin-4-yl)-6-methoxy-2H-indazol-5-yl)-6-(trifluoromethyl) pyridinecarboxamide, reference compound]
IKZF3 degradation rate (%) [1]: 71.2 ± 5.7% | Dmax [2]: 85.1% | WB D(%) (300 nM) [2]: 79.7% | WB D(%) (1000 nM) [2]: 85.7% | CL_pred ([3]; intravenous injection 1 mg/kg): 5.5 L/h/kg | Vss_pred ([3]; intravenous injection 1 mg/kg): 109.4 L/kg | AUC(0-t) ([3]; male, SD, mouse, intravenous injection 1 mg/kg, plasma): 0.122 µg·h/mL | bioavailability ([3]; male, SD, mouse, plasma, po, gavage 100 mg/kg vs intravenous 1 mg/kg): 14% | AUC(0-t) [3, 6]: 1.72 µg·h/mL | Cmax [3, 6]: 0.15 µg/mL | IKZF1 degradation rate (%) [4]: 47.5 ± 9.7%

CN(CC1CCN(c2cccc3c2C(=O)N(C2CCC(=O)NC2=O)C3=O)CC1)C[C@H]1CC[C@H](n2cc3cc(NC(=O)c4cccc(C(F)(F)F)n4)c(C(C)(C)O)cc3n2)CC1 (some centres unmarked) [Control group 3, N-(2-((1r,4r)-4-((((1-(2-(2,6-dioxopiperidin-3-yl)-1,3-dioxoisoindolin-4-yl)piperidin-4-yl)methyl)(methyl)amino)methyl)cyclohexyl)-6-(2-hydroxyprop-2-yl)-2H-indazol-5-yl)-6-(trifluoromethyl) pyridinecarboxamide, reference compound]
IKZF3 degradation rate (%) [1]: 92.8 ± 5.0% | IKZF1 degradation rate (%) [4]: 97.2 ± 2.6%

CC(C)(O)c1cc2nn(C3CCN(CCN4CCN(c5ccc6c(c5)C(=O)N(C5CCC(=O)NC5=O)C6=O)CC4)CC3)cc2cc1NC(=O)c1cccc(C(F)(F)F)n1 (centres unmarked) [Example 4, N-(2-(1-(2-(4-(2-(2,6-dioxopiperidin-3-yl)-1,3-dioxoisoindolin-5-yl)piperazin-1-yl)ethyl)piperidin-4-yl)-6-(2-hydroxyprop-2-yl)-2H-indazol-5-yl)-6-(trifluoromethyl) pyridinecarboxamide]
IKZF3 degradation rate (%) [1]: −4.5 ± 2.9% | DC50 [2]: 0.0017 µM | Dmax [2]: 99.9% | WB D(%) (300 nM) [2]: 99.5% | WB D(%) (1000 nM) [2]: 99.9% | IKZF1 degradation rate (%) [4]: 4.3 ± 0.8% | IC50 [5]: 0.0178 µM

CC(C)(O)c1cc2nn(C3CCN(CCC4CCN(c5ccc6c(c5)C(=O)N(C5CCC(=O)NC5=O)C6=O)CC4)CC3)cc2cc1NC(=O)c1cccc(C(F)(F)F)n1 (centres unmarked) [Example 5, N-(2-(1-(2-(1-(2-(2,6-dioxopiperidin-3-yl)-1,3-dioxoisoindolin-5-yl)piperidin-4-yl)ethyl)piperidin-4-yl)-6-(2-hydroxyprop-2-yl)-2H-indazol-5-yl)-6-(trifluoromethyl) pyridinecarboxamide]
IKZF3 degradation rate (%) [1]: 22.4 ± 6.6% | DC50 [2]: 0.0121 µM | Dmax [2]: 92.4% | WB D(%) (300 nM) [2]: 91.3% | WB D(%) (1000 nM) [2]: 89.5% | IKZF1 degradation rate (%) [4]: 18.8 ± 2.7% | IC50 [5]: 0.0411 µM

Nc1cccc2c1C(=O)N(C1CCC(=O)NC1=O)C2=O (centres unmarked) [Pomalidomide, reference compound]
IKZF3 degradation rate (%) [1]: 98.6 ± 0.6% | IKZF1 degradation rate (%) [4]: 99.7 ± 0.2%
